Patent US20090283050A1, “FEED COMPOSITION AND METHOD FOR BREEDING ANIMALS” (KENKO CORPORATION, priority 2005, published 2009)

System: Salmonella
Assay: Antimicrobial effect (MIC, MBC) on Salmonella
Format: cell-based
Settings: compared with the other antimicrobial agents tested
Protocol: The antimicrobial effects of these samples were evaluated by the determination of Minimum Inhibitory Concentration (MIC) and Minimum Bactericidal Concentration (MBC).
In this connection, bacterial strains used herein were those obtained from enteric canal of broiler chicken.

CC1(C)S[C@@H]2[C@H](NC(=O)[C@H](N)c3ccccc3)C(=O)N2[C@H]1C(=O)O [Ampicillin]
antibacterial effect against Salmonella, in words: quite weak antibacterial effect
